From patent publication US11236086B2, “Substituted pyrrolopyridines as inhibitors of activin receptor-like kinase” (BLUEPRINT MEDICINES CORPORATION, priority 2017, dated 2022)

How the values were obtained:
[1] = molecular target: T1, ALK2R206H (mutant ALK2, N-terminally tagged with GST) (Homo sapiens, UniProt Q04771, R206H); assay: ALK binding assay (LANTHASCREEN TR-FRET competitive binding, displacement of Kinase Tracer 178); settings: read-out: Binding Assay (IC50 class)
T1 construct: purchased Carna Bioscience or ThermoFisher 09-148 or PV6232
T1 sequence (Q04771 21-509 R206H): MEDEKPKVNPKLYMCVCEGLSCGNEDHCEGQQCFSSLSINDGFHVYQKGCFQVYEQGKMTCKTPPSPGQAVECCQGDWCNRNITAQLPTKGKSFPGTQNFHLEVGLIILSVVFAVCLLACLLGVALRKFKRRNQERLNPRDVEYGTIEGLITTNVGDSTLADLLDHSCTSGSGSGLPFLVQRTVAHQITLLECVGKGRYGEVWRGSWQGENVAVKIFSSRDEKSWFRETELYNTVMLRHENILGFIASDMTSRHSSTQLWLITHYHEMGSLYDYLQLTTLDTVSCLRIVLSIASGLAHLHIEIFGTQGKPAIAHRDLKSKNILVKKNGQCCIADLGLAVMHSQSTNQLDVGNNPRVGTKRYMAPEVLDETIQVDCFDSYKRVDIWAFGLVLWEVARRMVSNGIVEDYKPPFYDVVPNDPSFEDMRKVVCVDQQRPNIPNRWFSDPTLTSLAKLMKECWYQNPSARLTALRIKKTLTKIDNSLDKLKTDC
Method in brief: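 Competitive displacement of Kinase Tracer 178 (50 nM) from N-terminally GST-tagged mutant ALK2 R206H (2-5 nM) by compound, detected by TR-FRET with Eu-anti-GST antibody (4-10 nM). 30 min room temperature incubation, 1% DMSO final; normalized signal fitted to 4-parameter log dose response for IC50.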

human ALK2 R206H = molecular target: T2, human ALK2 R206H (Homo sapiens, UniProt Q04771, R206H); assay: Cell-based ALK2-R206H cell activity assay (Smad1-Ser463/Ser465 phosphorylation by AlphaLISA in HEK293-ALK2-R206H cells); settings: phospho-Smad1 AlphaLISA, read-out: Cell Line (Cell Assay, IC50 class)
T2 construct: expressed in transfected cells; host or cells: HEK293 (ATCC CRL1573), lentivirus transduction, blasticidin selection
T2 sequence (Q04771 21-509 R206H): T1 sequence (Q04771 21-509 R206H)
Method in brief: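 IC50 comes from a 10-point curve, scaled between DMSO and 1 μM LDN193189 controls, of lysate phospho-Smad1 (Ser463/465) measured by AlphaLISA. Compounds (top 10 μM or 1 μM, 3-fold steps, duplicates) were given 2-3 h to serum-starved HEK293 cells that stably express FLAG-tagged human ALK2 R206H.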

Compound | IC50 [1] | IC50 (human ALK2 R206H)
Cn1cc(-c2[nH]c3nccc(N4CCN(C(=O)O[C@H]5CCOC5)CC4)c3c2Cl)cn1 [Compound 330] | ≤ 10 nM | ≤ 100 nM
Cc1nc(-c2[nH]c3nccc(N4CCN(C(=O)OC5COC5)CC4)c3c2Cl)cn1C [Compound 331] | ≤ 10 nM | ≤ 100 nM
Cn1cc(-c2[nH]c3nccc(N4CCN(C(=O)O[C@@H]5CCOC5)CC4)c3c2Cl)cn1 [Compound 332] | ≤ 10 nM | 100 to 500 nM
Cc1nn(C)cc1-c1cc2c(N3CCN(C(=O)[C@H]4CC[C@H](C#N)CC4)CC3)ccnc2[nH]1 [Compound 333] | ≤ 10 nM | 100 to 500 nM
Cc1c(-c2cc3c(N4CCN(C(=O)[C@H]5CC[C@H](C#N)CC5)CC4)ccnc3[nH]2)cnn1C [Compound 334] | ≤ 10 nM | 100 to 500 nM
O=C(C1CC1)N1CCN(c2ccnc3[nH]c(-c4ccc(N5CCOCC5)cc4)cc23)CC1 [Compound 335] | ≤ 10 nM | ≤ 100 nM
Cn1ncc(-c2cc3c(N4CCN(C(=O)OC5COC5)CC4)ccnc3[nH]2)c1C(F)F [Compound 336] | ≤ 10 nM | 100 to 500 nM
Cc1nc(-c2[nH]c3nccc(N4CCN(C(=O)OCC(F)F)CC4)c3c2C#N)cs1 [Compound 337] | ≤ 10 nM | ≤ 100 nM
Cn1cc(-c2[nH]c3nccc(N4CCN(C(=O)O[C@H]5C[C@H](F)C5)CC4)c3c2Cl)cn1 [Compound 340] | ≤ 10 nM | ≤ 100 nM
CCOC(=O)N1CCN(c2ccnc3[nH]c(-c4cnn(C)c4)c(Br)c23)CC1 [Compound 341] | ≤ 10 nM | ≤ 100 nM
N#Cc1c(-c2cn3c(n2)CCC3)[nH]c2nccc(N3CCN(C(=O)OC4COC4)CC3)c12 [Compound 342] | ≤ 10 nM | ≤ 100 nM
CN(C)CCOc1ccc(-c2cc3c(N4CCN(C(=O)C5CC5)CC4)ccnc3[nH]2)cc1 [Compound 343] | ≤ 10 nM | ≤ 100 nM
Cc1nc(-c2[nH]c3nccc(N4CCN(C(=O)OC5COC5)CC4)c3c2Cl)cs1 [Compound 344] | ≤ 10 nM | ≤ 100 nM
O=C(O[C@H]1C[C@H](F)C1)N1CCN(c2ccnc3[nH]c(-c4cn(C(F)F)cn4)cc23)CC1 [Compound 345] | ≤ 10 nM | ≤ 100 nM
CC#Cc1c(-c2cn(C)c(C)n2)[nH]c2nccc(N3CCN(C(=O)OC4COC4)CC3)c12 [Compound 347] | ≤ 10 nM | ≤ 100 nM
COC(=O)COc1ccc(-c2cc3c(N4CCN(C(=O)C5CC5)CC4)ccnc3[nH]2)cc1 [Compound 348] | ≤ 10 nM | > 500 nM
COc1ccc(-c2cc3c(N4CCN(C(=O)[C@H]5CC[C@H](O)CC5)CC4)ccnc3[nH]2)cc1 [Compound 349] | ≤ 10 nM | ≤ 100 nM
CC(C)n1cnc(-c2[nH]c3nccc(N4CCN(C(=O)OC5COC5)CC4)c3c2C#N)c1 [Compound 350] | ≤ 10 nM | ≤ 100 nM
CC(C)(C#N)n1cc(-c2cc3c(N4CCN(C(=O)OC5COC5)CC4)ccnc3[nH]2)cn1 [Compound 351] | ≤ 10 nM | 100 to 500 nM
CC(C#N)Cn1cc(-c2cc3c(N4CCN(C(=O)OC5COC5)CC4)ccnc3[nH]2)cn1 (centres unmarked) [Compound 352] | ≤ 10 nM | 100 to 500 nM
CCOC(=O)N1CCN(c2ccnc3[nH]c(-c4ccc([C@]5(O)CCOC5)cc4)cc23)CC1 [Compound 354] | ≤ 10 nM | ≤ 100 nM
CCOC(=O)N1CCN(c2ccnc3[nH]c(-c4ccc([C@@]5(O)CCOC5)cc4)cc23)CC1 [Compound 355] | ≤ 10 nM | ≤ 100 nM
Cc1nc(-c2[nH]c3nccc(N4CCN(C(=O)O[C@H]5C[C@@H](F)C5)CC4)c3c2C#N)cn1C [Compound 356] | ≤ 10 nM | ≤ 100 nM

Compound | IC50 [1] | IC50 (human ALK2 R206H)
Cc1nc(-c2[nH]c3nccc(N4CCN(C(=O)O[C@H]5C[C@H](F)C5)CC4)c3c2C#N)cn1C [Compound 357] | ≤ 10 nM | ≤ 100 nM
O=C(OC1COC1)N1CCN(c2ccnc3[nH]c(-c4cn([C@@H]5CCOC5)cn4)cc23)CC1 [Compound 358] | ≤ 10 nM | 100 to 500 nM
O=C(OC1COC1)N1CCN(c2ccnc3[nH]c(-c4cn([C@H]5CCOC5)cn4)cc23)CC1 [Compound 359] | ≤ 10 nM | ≤ 100 nM
CCS(=O)(=O)c1ccc(-c2cc3c(N4CCN(C(=O)C5CC5)CC4)ccnc3[nH]2)cc1 [Compound 362] | ≤ 10 nM | ≤ 100 nM
Cc1nc(-c2[nH]c3nccc(N4CCN(C(=O)OCC(F)F)CC4)c3c2Cl)cn1C [Compound 363] | ≤ 10 nM | ≤ 100 nM
Cc1nc(-c2[nH]c3nccc(N4CCN(C(=O)O[C@H]5C[C@H](F)C5)CC4)c3c2C#N)cs1 [Compound 365] | ≤ 10 nM | ≤ 100 nM
Cn1cc(-c2[nH]c3nccc(N4CCN(C(=O)O[C@@H]5CCC5(F)F)CC4)c3c2C#N)cn1 [Compound 366] | ≤ 10 nM | ≤ 100 nM
Cn1cc(-c2[nH]c3nccc(N4CCN(C(=O)O[C@H]5CCC5(F)F)CC4)c3c2C#N)cn1 [Compound 367] | ≤ 10 nM | ≤ 100 nM
Cn1cnc(-c2[nH]c3nccc(N4CCN(C(=O)O[C@@H]5CCC5(F)F)CC4)c3c2C#N)c1 [Compound 368] | ≤ 10 nM | ≤ 100 nM
Cn1cnc(-c2[nH]c3nccc(N4CCN(C(=O)O[C@H]5CCC5(F)F)CC4)c3c2C#N)c1 [Compound 369] | ≤ 10 nM | ≤ 100 nM
Cn1cnc(-c2[nH]c3nccc(N4CCN(C(=O)OC5CC(F)(F)C5)CC4)c3c2C#N)c1 [Compound 370] | ≤ 10 nM | ≤ 100 nM
O=C(OC1COC1)N1CCN(c2ccnc3[nH]c(-c4nc5c(s4)COCC5)cc23)CC1 [Compound 371] | ≤ 10 nM | ≤ 100 nM
CC(C)(C)c1csc(-c2cc3c(N4CCN(C(=O)OC5COC5)CC4)ccnc3[nH]2)n1 [Compound 372] | ≤ 10 nM | ≤ 100 nM
Cn1cc(-c2[nH]c3nccc(N4CCN(C(=O)[C@H]5CC[C@H](C#N)CC5)CC4)c3c2C#N)cn1 [Compound 374] | ≤ 10 nM | ≤ 100 nM
N#Cc1c(-c2cn(C(F)F)cn2)[nH]c2nccc(N3CCN(C(=O)OC4COC4)CC3)c12 [Compound 375] | ≤ 10 nM | ≤ 100 nM
N#Cc1c(-c2cnn(C(F)F)c2)[nH]c2nccc(N3CCN(C(=O)OC4COC4)CC3)c12 [Compound 376] | ≤ 10 nM | ≤ 100 nM
CC(C)(O)c1cnc(-c2cc3c(N4CCN(C(=O)OC5COC5)CC4)ccnc3[nH]2)s1 [Compound 377] | ≤ 10 nM | ≤ 100 nM
CC(C)(O)c1nc(-c2cc3c(N4CCN(C(=O)OC5COC5)CC4)ccnc3[nH]2)cs1 [Compound 378] | ≤ 10 nM | 100 to 500 nM
CN1CCN(c2ccc(-c3cc4c(N5CCN(C(=O)C6CC6)CC5)ccnc4[nH]3)cc2)CC1 [Compound 380] | ≤ 10 nM | ≤ 100 nM
CC(C)n1cc(-c2cc3c(N4CCN(C(=O)[C@H]5CC[C@H](C#N)CC5)CC4)ccnc3[nH]2)cn1 [Compound 381] | ≤ 10 nM | ≤ 100 nM
CN1CCN(c2ccc(-c3cc4c(N5CCN(C(=O)C6CC6)CC5)ccnc4[nH]3)cn2)CC1 [Compound 382] | ≤ 10 nM | ≤ 100 nM
CC(C)(C#N)c1ccc(-c2cc3c(N4CCN(C(=O)OC5COC5)CC4)ccnc3[nH]2)nc1 [Compound 383] | ≤ 10 nM | ≤ 100 nM
O=C(C1CC1)N1CCN(c2ccnc3[nH]c(-c4ccc(C5(O)CCCOC5)cc4)cc23)CC1 (centres unmarked) [Compound 385] | ≤ 10 nM | ≤ 100 nM
